Measurements from patent publication US20130281313A1, “PROGNOSTIC AND/OR PREDICTIVE BIOMARKERS AND BIOLOGICAL APPLICATIONS THEREOF” (INSTITUT GUSTAVE ROUSSY, priority 2010, published 2013).

Assays:
Saccharomyces cerevisiae = assay: Yeast clonogenic survival; format: cell-based; details: yeast cells, pre-incubated with 1 mM AOAA before CDDP
Procedure: The haploid WT Saccharomyces cerevisiae strain BY4741 (MATa; his3Δ1; leu2Δ0; met15Δ0; ura3Δ0), its diploid counterpart BY4743 (MATa/MATα; his3Δ1/his3Δ1; leu2Δ0/leu2Δ0; MET15/met15Δ0; LYS2/lys2Δ0; ura3Δ0/ura3Δ0) as well as the null mutants employed in this study were obtained from were obtained from Euroscarf (Frankfurt, Germany). For large-scale experiments (see also FIG. 9), yeast cells were cultured on a routine basis at 28° C., on yeast extract peptone dextrose (YEPD) medium containing 1% yeast extract (Difco Laboratories, Detroit, USA), 2% bacto peptone (Difco Laboratories) and […] {Madeo, 2002}. […]
In all settings, cell number was then quantified by means of a CASY® cell counter (Schärfe System, Reutlingen, Germany) and 500 cells from each experimental condition were seeded on three parallel YEPD plates. Following 3 days of incubation at 28° C., plates were finally subjected to the quantification of colony forming units (CFUs). For each genotype or experimental condition, clonogenic survival was calculated as the ratio between the number of CFUs observed in treated and untreated conditions.

A549 cells [1] = assay: Cytofluorometric assessment of cell death (DiOC6(3)/PI co-staining); format: cell-based, human; details: A549 cells, 75 μM CDDP
Procedure: Unless otherwise specified, chemicals were purchased from Sigma-Aldrich (St. Louis, USA), culture media and supplements for cell culture from Gibco-Invitrogen (Carlsbad, USA) and plasticware from Corning (Corning, USA). […] Orlistat (Xenical®) was obtained from Roche (Basel, Switzerland). […] Undissolved material was removed by two sequential rounds of centrifugation at 12,000 G (5 min, room temperature, RT), supernatants were collected and stored at −80° C. under protection from light until use. In low-throughput experiments, all cell lines were treated with 2.5 mM pyridoxine (PN), exception made for A549 cells that received 5 mM PN.
To avoid depleting the siRNA library of selected sequences, siRNAs for validation experiments were purchased as custom molecules from Sigma-Aldrich. For low-throughput experiments, (see below for the transfection protocols employed in the siRNA screen), siRNA were transfected in A549 cells with Oligofectamine™ reagent (Invitrogen), following the manufacturer's instructions. Transfection with a non-targeting siRNA (siUNR) was employed as a negative control condition. Forty-eight hours after transfection, siRNA-mediated target downregulation was assessed by immunoblotting (see below).
All cytofluorometric determinations were carried out a FACSCalibur or a FACScan cytofluorometer (BD Biosciences, San Jose, USA) equipped with a 70 μm nozzle.
First line statistical analysis of cytofluorometric results was performed by using the CellQuest™ software (BD Biosciences), by gating on the events characterized by normal forward scatter and side scatter parameters. Apoptosis- and cell cycle-related data were further analyzed with Microsoft Excel (Microsoft Co., Redmond, USA) and statistical significance was assessed by means of two-tailed Student's t test (p<0.05).

A549 cells [2] = assay: Transcriptome studies (mRNA microarrays); format: cell-based, human
Procedure: NSCLC A549 cells were treated with 100 μM CDDP, 75 μM C2-CER or 100 μM CdCl2 for 12 h, or with 50 μM CDDP, C2-CER or CdCl2 for 24 h. Thereafter, cells were collected and lysed for RNA extraction of following established procedures {de La Motte Rouge, 2007}. mRNA expression changes were quantified on G4112A 44 k Whole Human Genome Oligo Microarrays (Agilent Technologies, Santa Clara, USA), as previously reported {Castedo, 2006}. mRNA microarrays underwent standardized post-hybridization processing, image acquisition and analysis (see below) {Castedo, 2006}.
Data from microarray experiments were analyzed with the Rosetta Resolver® System (Rosetta Biosoftware, Seattle, USA). The threshold for statistical significance of probe signals (Intensity) was set at p=10^−5. […] For each mRNA, fold change (FC) was then defined as Intensitysample/Intensitycontrol when Intensitysample>Intensitycontrol, or as—(Intensitycontrol/Intensitysample) when Intensitysample<Intensitycontrol. Ratios were calculated as Intensitysample/Intensitycontrol.

[3] = tested on: isolated rat liver mitochondria; assay: Large-amplitude swelling of isolated mitochondria; details: cell-free experiments
Procedure: Mitochondria were isolated from the liver of male Wistar Kyoto rats (Charles River Laboratories Inc., Wilmington, USA) by differential centrifugation, as previously described {Zischka, 2008}. Briefly, immediately after organ collection, livers were homogenized with a glass teflon homogenizer in an isolation buffer containing 10 mM triethanolamine, 10 mM acetic acid, 280 mM sucrose, 0.2 mM EGTA (pH adjusted to 7.4 with KOH). Homogenates were cleared from debris and nuclei by two rounds of centrifugation at 750 G (10 min, 4° C.). […]
For large-amplitude swelling determinations, mitochondria were resuspended in swelling buffer (10 mM Tris-MOPS pH 7.4, 200 mM sucrose, 5 mM succinate, 1 mM phosphate, 10 μM EGTA and 2 μM rotenone) and pre-incubated for 5 min at RT with swelling buffer (negative control) or either of the following permeability transition inhibitors: 5 or 10 μM bongkrekic acid (BA), 1 or 5 μM cyclosporine A (CsA); 0.1 or 0.5 mM reduced glutathione (GSH) or 0.5 or 2 mM N-acetylcysteine (NAC). […] Permeability transition-induced large-amplitude swelling was assessed by measuring light scattering of mitochondrial suspensions at 540 nm on a standard microplate absorbance reader (μ-Quant™, Bio-Tek, Bad Friedrichshall, Germany) every 5 min over a total assay time of 30 min (at RT), as previously described {Zischka, 2008}. […]

[4] = 12 h, 100 μM CDDP, 75 μM C2-CER or 100 μM CdCl2, vs untreated cells
[5] = 24 h, 50 μM CDDP, C2-CER or CdCl2, vs untreated cells

NOCC(=O)O [AOAA, aminooxyacetic acid]
toxicity of CDDP upon addition of the CCBL1 inhibitor (clonogenic survival) (Saccharomyces cerevisiae): reduced the toxicity of CDDP
toxicity of CDDP upon addition of the CCBL1 inhibitor (A549 cells [1]): reduced the toxicity of CDDP

[Cl][Cd][Cl] [CdCl2, cadmium chloride]
Fold change, ADAR (NM_001111) transcript (A549 cells [2]; [4]): n.s.
Fold change, ALDH7AT (NM_001182) transcript (A549 cells [2]; [4]): −1.65
Fold change, CD151 (NM_004357) transcript (A549 cells [2]; [4]): n.s.
Fold change, CLIC1 (NM_001288) transcript (A549 cells [2]; [4]): 4.60
Fold change, COMMO9 (NM_014186) transcript (A549 cells [2]; [4]): 1.85
Fold change, COX5B (NM_001802) transcript (A549 cells [2]; [4]): n.s.
Fold change, COX7C (NM_001867) transcript (A549 cells [2]; [4]): n.s.
Fold change, DHRSX (NM_145177) transcript (A549 cells [2]; [4]): 1.64
Fold change, EBP (NM_006579) transcript (A549 cells [2]; [4]): n.s.
Fold change, EEF2 (NM_001901) transcript (A549 cells [2]; [4]): n.s.
Fold change, FDXK (NM_003681) transcript (A549 cells [2]; [4]): n.s.
Fold change, FN3KRP (NM_024619) transcript (A549 cells [2]; [4]): −3.34
Fold change, HDLBP (NM_005336) transcript (A549 cells [2]; [4]): n.s.
Fold change, HGD (NM_000187) transcript (A549 cells [2]; [4]): −2.37
Fold change, IL6R (NM_000565) transcript (A549 cells [2]; [4]): n.s.
Fold change, KHSRP (NM_003685) transcript (A549 cells [2]; [4]): n.s.
Fold change, LOC389727 (NM_372092) transcript (A549 cells [2]; [4]): 2.09
Fold change, MAT2A (NM_005911) transcript (A549 cells [2]; [4]): −4.30
Fold change, MOL1 (NM_021960) transcript (A549 cells [2]; [4]): 1.37
Fold change, MPP6 (NM_016447) transcript (A549 cells [2]; [4]): −3.80
Fold change, OSTCL (NM_145303) transcript (A549 cells [2]; [4]): n.s.
Fold change, P5MC5 (NM_002805) transcript (A549 cells [2]; [4]): n.s.
Fold change, PLK1S1 (NM_018474) transcript (A549 cells [2]; [4]): n.s.
Fold change, PPM1J (NM_005167) transcript (A549 cells [2]; [4]): n.s.
Fold change, RNF26 (NM_032015) transcript (A549 cells [2]; [4]): −1.77
Fold change, RRAD (NM_004185) transcript (A549 cells [2]; [4]): 3.33
Fold change, SEMA3G (NM_000379) transcript (A549 cells [2]; [4]): n.s.
Fold change, SLC22A16AS (NM_007105) transcript (A549 cells [2]; [4]): −1.43
Fold change, SOCS6 (NM_004232) transcript (A549 cells [2]; [4]): n.s.
Fold change, TMED1 (NM_006858) transcript (A549 cells [2]; [4]): n.s.
Fold change, TRIP4 (NM_016213) transcript (A549 cells [2]; [4]): n.s.
Fold change, UBE2L3 (NM_003347) transcript (A549 cells [2]; [4]): n.s.
Fold change, UBE21 (NM_014176) transcript (A549 cells [2]; [4]): −2.06
Fold change, W282 (NM_018029) transcript (A549 cells [2]; [4]): 1.32
Fold change, ADAR (NM_001111) transcript (A549 cells [2]; [5]): −1.33
Fold change, ALDH7AT (NM_001182) transcript (A549 cells [2]; [5]): −1.82
Fold change, CD151 (NM_004357) transcript (A549 cells [2]; [5]): n.s.
Fold change, CLIC1 (NM_001288) transcript (A549 cells [2]; [5]): −1.29
Fold change, COMMO9 (NM_014186) transcript (A549 cells [2]; [5]): 1.87
Fold change, COX5B (NM_001802) transcript (A549 cells [2]; [5]): n.s.
Fold change, COX7C (NM_001867) transcript (A549 cells [2]; [5]): n.s.
Fold change, DHRSX (NM_145177) transcript (A549 cells [2]; [5]): 1.38
Fold change, EBP (NM_006579) transcript (A549 cells [2]; [5]): n.s.
Fold change, EEF2 (NM_001901) transcript (A549 cells [2]; [5]): n.s.
Fold change, FDXK (NM_003681) transcript (A549 cells [2]; [5]): n.s.
Fold change, FN3KRP (NM_024619) transcript (A549 cells [2]; [5]): −2.05
Fold change, HDLBP (NM_005336) transcript (A549 cells [2]; [5]): n.s.
Fold change, HGD (NM_000187) transcript (A549 cells [2]; [5]): −2.34
Fold change, IL6R (NM_000565) transcript (A549 cells [2]; [5]): n.s.
Fold change, KHSRP (NM_003685) transcript (A549 cells [2]; [5]): n.s.
Fold change, LOC389727 (NM_372092) transcript (A549 cells [2]; [5]): n.s.
Fold change, MAT2A (NM_005911) transcript (A549 cells [2]; [5]): −3.05
Fold change, MOL1 (NM_021960) transcript (A549 cells [2]; [5]): 1.07
Fold change, MPP6 (NM_016447) transcript (A549 cells [2]; [5]): n.s.
Fold change, OSTCL (NM_145303) transcript (A549 cells [2]; [5]): n.s.
Fold change, P5MC5 (NM_002805) transcript (A549 cells [2]; [5]): n.s.
Fold change, PLK1S1 (NM_018474) transcript (A549 cells [2]; [5]): n.s.
Fold change, PPM1J (NM_005167) transcript (A549 cells [2]; [5]): n.s.
Fold change, RNF26 (NM_032015) transcript (A549 cells [2]; [5]): −1.51
Fold change, RRAD (NM_004185) transcript (A549 cells [2]; [5]): 2.04
Fold change, SEMA3G (NM_000379) transcript (A549 cells [2]; [5]): n.s.
Fold change, SLC22A16AS (NM_007105) transcript (A549 cells [2]; [5]): −1.53
Fold change, SOCS6 (NM_004232) transcript (A549 cells [2]; [5]): n.s.
Fold change, TMED1 (NM_006858) transcript (A549 cells [2]; [5]): n.s.
Fold change, TRIP4 (NM_016213) transcript (A549 cells [2]; [5]): n.s.
Fold change, UBE2L3 (NM_003347) transcript (A549 cells [2]; [5]): n.s.
Fold change, UBE21 (NM_014176) transcript (A549 cells [2]; [5]): −1.50
Fold change, W282 (NM_018029) transcript (A549 cells [2]; [5]): n.s.
direct mitochondrion-permeabilizing effects [3]: can mediate direct mitochondrion-permeabilizing effects
